Data as given in article PMC9758846, “Dinuclear and mononuclear metal(II) polypyridyl complexes against drug-sensitive and drug-resistant Plasmodium falciparum and their mode of action” (Malaria Journal, 2022).

Legend:
[1] = PNDA assay of •OH radicals from reaction with H2O2; conditions: for Concentration of •OH radical: 30 µM compound with excess H2O2
Description: A previously reported spectrometric assay using PNDA was used to quantify the amount of reactive oxygen species (ROS), viz. •OH radicals, produced by the reaction of metal(II) complexes with hydrogen peroxide in borate buffer at pH 7.5 [24–26]. The percentage of PNDA bleaching and the concentration of •OH produced were determined.

[2] = Solution stability by molar conductivity and visible absorptivity; type: physicochemical; conditions: 24, 48 and 72 h; room temperature
Description: Series of 10 mM stock solutions were prepared by dissolving the compounds in their respective solvents: phen and 4,4′-bipy in 95% ethanol; Cu(NO3)2·3H2O, Zn(NO3)2·6H2O, (1) and (2) in double distilled water; (3) and (4) in DMSO. All the stock solutions were further diluted with double distilled water to obtain 10 mL of 30 µM, 1 mM and 5 mM for their respective studies, viz. 30 µM for ultraviolet spectral studies, 1 mM for conductivity measurement and 5 mM for visible spectral studies. For the water-DMSO solutions of both complexes (3) and (4), the 30 µM, 1 mM and 5 mM solutions have […], 10% DMSO and 50% DMSO respectively. The absorbance at λmax and conductance were of the aqueous solutions were measured at 0, 24, 48 and 72 h. The molar absorptivity and molar conductivity of the metal(II) complex solutions and their precursors were then calculated.

Pf5202 = assay: Intracellular ROS level using DCFH-DA; type: cell-based, Plasmodium falciparum
Description: (§1) After incubation, packed cells were washed with phosphate buffer saline (PBS) solution. […] The data was expressed as fold change between amount of ROS produced by treated P. falciparum against untreated P. falciparum. Normalization was done with the percentage of parasite viability obtained at each condition. Hydrogen peroxide was used as positive control.

Pf3D7 = assay: Intracellular ROS level using DCFH-DA; type: cell-based, Plasmodium falciparum
Description: as §1

[3] = system: B+ blood red blood cells (RBC); assay: In vitro haemolytic assay; type: cell-based, human; conditions: up to 25 µM; 72 h
Description: Fresh B+ blood was washed with RPMI1640 medium containing of 30 µg/mL gentamicin (Gibco) and centrifuged at 1000 xg for 10 min three times. The percentage of haemolysis was determined spectroscopically using 5% haematocrit containing test compound at increasing concentration and incubated for 72 h at 37 °C [19, 20]. Untreated blood acted as negative control while blood treated with sterile distilled water acted as positive control (for 100% haemolysis).

O.O.O=[N+]([O-])[O-].O=[N+]([O-])[O-].[Zn+2].c1cnc2c(c1)ccc1cccnc12.c1cnc2c(c1)ccc1cccnc12 [Complex 2, [Zn(phen)2](NO3)2·2H2O]
Concentration of •OH radical ([1]; 2 h): 0.01 ± 0.08 µM | Concentration of •OH radical ([1]; 4 h): 0.08 ± 0.03 µM | Concentration of •OH radical ([1]; 24 h): 0.20 ± 0.16 µM | Concentration of •OH radical ([1]; 48 h): 0.21 ± 0.05 µM | Concentration of •OH radical ([1]; 72 h): 0.28 ± 0.08 µM | Generation of ·OH radicals (in words) ([1]; equimolar test compound with excess H2O2): did not generate any ·OH radicals | Stability of aqueous solution (molar conductivity; for (1) also visible molar absorptivity) [2]: remains practically unchanged | fold change in ROS (Pf5202; 24 h, 0.2 µM): 1.07 ± 0.05 fold | fold change in ROS (Pf5202; 24 h, 1.0 µM): 1.10 ± 0.09 fold | fold change in ROS (Pf5202; 24 h, 5.0 µM): 1.00 ± 0.02 fold | fold change in ROS (Pf5202; 24 h, 25.0 µM): 1.04 ± 0.06 fold | fold change in ROS (Pf5202; 72 h, 0.2 µM): 0.00 ± 0.03 fold | fold change in ROS (Pf5202; 72 h, 1.0 µM): 0.34 ± 0.04 fold | fold change in ROS (Pf5202; 72 h, 5.0 µM): 0.16 ± 0.04 fold | fold change in ROS (Pf3D7; 24 h, 0.2 µM): 0.07 ± 0.08 fold | fold change in ROS (Pf3D7; 24 h, 1.0 µM): 0.39 ± 0.19 fold | fold change in ROS (Pf3D7; 24 h, 5.0 µM): 0.45 ± 0.10 fold | fold change in ROS (Pf3D7; 24 h, 25.0 µM): 2.61 ± 0.12 fold | fold change in ROS (Pf3D7; 48 h, 0.2 µM): 1.9 ± 0.38 fold | fold change in ROS (Pf3D7; 48 h, 1.0 µM): 2.13 ± 0.21 fold | fold change in ROS (Pf3D7; 48 h, 5.0 µM): 2.95 ± 0.18 fold | fold change in ROS (Pf3D7; 48 h, 25.0 µM): 2.48 ± 0.26 fold | fold change in ROS (Pf3D7; 72 h, 25.0 µM): 0.70 ± 0.05 fold | Haemolysis on B+ blood (in words) [3]: no haemolysis
